Where “and” joins values, the source holds several entries; their conditions need not be identical. Equal values may be shown once.
Legend:
Assay type in all cases: cell-based
bacteria mixture B = test: Emulsion paint inoculated once with bacteria mixture B, semiquantitative growth evaluation; set-up: key: 0: No growth; Minimal growth, 1 to 10 colonies visible over the entire streak; 2: Light growth, maximum 100 colonies; Moderate growth, maximum 300 to 400 colonies; Uniform growth, >400 colonies, single colonies still clearly recognizable; 5: Heavy growth, too many colonies to count, but no growth over the entire streak; 6: Full growth, barely any single colonies still apparent, growth over the entire streak; conditions: +6000 ppm guanidine hydrochloride (3708 ppm guanidine)
Description: In examples 35 to 38 below, synergistic interaction between guanidine and antimicrobial substances with respect to microbial infestation was studied using an emulsion paint and a laundry detergent or cleaning composition by adding particular amounts of guanidine salts and isothiazolinones and examining their stability against microbial infestation: […] The laundry detergent was a heavy-duty laundry detergent without preservatives (pH 8.1), and the cleaning composition was an all-purpose detergent without preservatives (pH 7.6), each likewise made in the laboratory, without addition of the otherwise usual conventional preservatives. To each paint was added—individually and in combination—particular concentrations of guanidinium hydrochloride, benzisothiazolinone (BIT), and a mixture of chloromethylisothiazolinone (CIT) and methylisothiazolinone (MIT). The laundry detergent and the cleaning composition were admixed with particular concentrations of guanidinium hydrochloride and benzisothiazolinone (BIT). The resultant batches of the paint thus prepared were inoculated with a mixture of different bacteria species (bacteria mixture B); the batches of the laundry detergent and cleaning compositions thus prepared were inoculated with a yeast mixture. • Pseudomonas spp. (Pseudomonas oleovorans group) DSM 33933 • Pseudomonas aeruginosa DSM 33935 • Pseudomonas oleovorans DSM 33936 • Pseudomonas spec. DSM 33937 • Pseudomonas aeruginosa DSM 33938 […] The cell suspension of the bacteria mixture was produced by growing the individual bacteria at 30° C. for 24 h in liquid culture on a shaker. The growth medium used for the bacteria was Müller-Hinton liquid medium. After growing, the individual liquid cultures were centrifuged, and the cells were resuspended in physiological saline solution. […] The cell count of the inoculum was determined in each case by chamber counting. […] The streaked agar plates were then incubated at 30° C. for 48 hours (bacteria) or at 25° C. for 72 hours (yeasts). After incubation, the bacterial or yeast colonies that have grown on the agar plates were visually evaluated and quantified according to the following scheme: [table]

[1] = tested on: Pseudomonas putida DSM 115323; test: Minimum inhibitory concentrations and synergy index in Müller-Hinton broth
Protocol: (§1) Test organisms used were Gram-negative bacterial species from the group of pseudomonads, Pseudomonas putida DSM 115323 and Pseudomonas spec. DSM 115322. For this purpose, mixtures with different concentrations of the respective active substances were prepared and tested for their effect on the pseudomonads. The test was run in Müller-Hinton broth MHB with a cell density of 10^6 microbes per ml. When organic acids are used as a combination partner with the guanidine, MHB was adjusted to pH 5.5.
(§2) The incubation was run in microplates at 30° C. for 48 hours. After 48 hours, the batches were evaluated for turbidity resulting from growth, and optical density was additionally determined photometrically. In this way, the minimum inhibitory concentrations (MICs) of the two actives were determined individually and in combination.
(§3) The calculation was done according to the standard method of F. C. Kull et al., Applied Microbiology, vol. 9 (1961), p. 538.
(§4) This involves calculating the synergy index (SI) by the following formula:
(§5) [formula] • Qa=concentration of component A in the A+B mixture • QA=concentration of component A as the sole biocide • Qb=concentration of component B in the A+B mixture • QB=concentration of component B as the sole biocide
(§6) If the synergy index is greater than 1, this means that there is antagonism. If the synergy index assumes the value 1, this means that the effect of the two biocides/compounds is additive. If the synergy index assumes a value of less than 1, this means that there is synergism between the two biocides/compounds.

[2] = tested on: Pseudomonas spec. DSM 115322; test: as above; conditions: for QA: Concentration of guanidine as the sole agent that shows an endpoint: guanidine (added as guanidine hydrochloride) alone, 48 hours at 30° C.
Protocol: as §1, §2, §3, §4, §5, §6

Structure (SMILES): N=C(N)N [guanidine]
- Bacterial growth (bacteria mixture B; Example 35, emulsion paint, Day 1): 6
- Bacterial growth (bacteria mixture B; Example 35, emulsion paint, Day 6): 6
- Bacterial growth (bacteria mixture B; Example 36, emulsion paint, Day 1): 6
- Bacterial growth (bacteria mixture B; Example 36, emulsion paint, Day 6): 6
- QA: Concentration of guanidine as the sole agent that shows an endpoint ([1]; guanidine (added as guanidine hydrochloride) alone, 48 hours at 30° C.): 6180 ppm
- Synergy index Qa/QA + Qb/QB ([1]; guanidine and CIT, Qa, Qb): 1.00
- QA: Concentration of guanidine as the sole agent that shows an endpoint ([2]; MHB adjusted to pH 5.5): 12359 ppm
- QA: Concentration of guanidine as the sole agent that shows an endpoint ([2]; MHB): 9269 ppm and 9105 ppm
- Synergy index Qa/QA + Qb/QB ([2]; guanidine and AEPD): 1.00
- Synergy index Qa/QA + Qb/QB ([2]; guanidine and AMP): 1.00
- Synergy index Qa/QA + Qb/QB ([2]; guanidine and BBIT): 1.00
- Synergy index Qa/QA + Qb/QB ([2]; guanidine and BIT): 1.00
- Synergy index Qa/QA + Qb/QB ([2]; guanidine and DBDCB): 1.00
- Synergy index Qa/QA + Qb/QB ([2]; guanidine and DBNPA): 1.00
- Synergy index Qa/QA + Qb/QB ([2]; guanidine and EDTA): 1.00
- Synergy index Qa/QA + Qb/QB ([2]; guanidine and EHG): 1.00
- Synergy index Qa/QA + Qb/QB ([2]; guanidine and HEDP): 1.00
- Synergy index Qa/QA + Qb/QB ([2]; guanidine and IPBC): 1.00
- Synergy index Qa/QA + Qb/QB ([2]; guanidine and MBIT): 1.00
- Synergy index Qa/QA + Qb/QB ([2]; guanidine and MEA): 1.00
- Synergy index Qa/QA + Qb/QB ([2]; guanidine and MIT): 1.00
- Synergy index Qa/QA + Qb/QB ([2]; guanidine and OIT): 1.00
- Synergy index Qa/QA + Qb/QB ([2]; guanidine and benzoic acid, pH 5.5): 1.00
- Synergy index Qa/QA + Qb/QB ([2]; guanidine and benzyl alcohol): 1.00
- Synergy index Qa/QA + Qb/QB ([2]; guanidine and bronopol): 1.00
- Synergy index Qa/QA + Qb/QB ([2]; guanidine and citric acid, pH 5.5): 1.00
- Synergy index Qa/QA + Qb/QB ([2]; guanidine and heptane-1,2-diol): 1.00
- Synergy index Qa/QA + Qb/QB ([2]; guanidine and hexane-1,2-diol): 1.00
- Synergy index Qa/QA + Qb/QB ([2]; guanidine and hexylglycerol): 1.00
- Synergy index Qa/QA + Qb/QB ([2]; guanidine and isopropanol): 1.00
- Synergy index Qa/QA + Qb/QB ([2]; guanidine and lactic acid, pH 5.5): 1.00
- Synergy index Qa/QA + Qb/QB ([2]; guanidine and oPP): 1.00
- Synergy index Qa/QA + Qb/QB ([2]; guanidine and octane-1,2-diol): 1.00
- Synergy index Qa/QA + Qb/QB ([2]; guanidine and pentane-1,2-diol): 1.00
- Synergy index Qa/QA + Qb/QB ([2]; guanidine and phenethyl alcohol): 1.00
- Synergy index Qa/QA + Qb/QB ([2]; guanidine and phenoxyethanol): 1.00
- Synergy index Qa/QA + Qb/QB ([2]; guanidine and phenylpropanol): 1.00
- Synergy index Qa/QA + Qb/QB ([2]; guanidine and pyrithione): 1.00
- Synergy index Qa/QA + Qb/QB ([2]; guanidine and salicylic acid, pH 5.5): 1.00
- Synergy index Qa/QA + Qb/QB ([2]; guanidine and sorbic acid, pH 5.5): 1.00
